Target: human activated kallikrein enzyme (Homo sapiens (Human), UniProt P03952)
Assay: Inhibition of human activated plasma kallikrein, fluorogenic peptide substrate assay (500 pM enzyme format)
Format: biochemical
Conditions: 500 pM activated kallikrein, 300 uM Pro-Phe-Arg-7-amido-4-methylcoumarin substrate, 30 min preincubation, 10 min reaction at RT; read-out: Primary Dose Response Assay: Average EC50
Experimental: Inhibitory Activity of Exemplary Compounds against Plasma Kallikrein. Example compounds were evaluated for inhibition of the human activated kallikrein enzyme in two formats of an assay employing a fluorogenic peptide substrate. In one assay format, the concentrations of reagents were as follows: 20 mM Tris pH 7.5, 1 mM EDTA, 150 mM sodium chloride, 0.1% PEG-400, 0.1% Triton X-100, 500 pM activated kallikrein enzyme, 300 uM Pro-Phe-Arg-7-amido-4-methylcoumarin substrate. Prior to reaction initiation with substrate, enzyme and inhibitors were preincubated for 30 min at RT. After initiation with substrate, reactions were incubated for 10 min at RT and fluorescence emission at 460 nm from 380 nm excitation measured with a microplate reader. In another assay format, the concentrations of reagents were as follows: 20 mM Tris pH 7.5, 1 mM EDTA, 150 mM sodium chloride, 0.1% PEG-400, 0.1% Triton X-100, 5 pM activated kallikrein enzyme, 300 uM Pro-Phe-Arg-7-amido-4-methylcoumarin substrate. Prior to reaction initiation with substrate, enzyme and inhibitors were preincubated for 30 min at RT. After initiation with substrate, reactions were incubated for 18 h at RT and fluorescence emission at 460 nm from 380 nm excitation measured with a microplate reader.
Table 1 provides the results of the assay in the format with 500 pM activated kallikrein assay. For the compounds listed in Table 1, the EC50 values are reported according to the following ranges: A≤50 nM; 50 nM<B≤200 nM; 200 nM<C≤1000 nM; 1000 nM<D.

human activated kallikrein enzyme, sequence (P03952 391-638): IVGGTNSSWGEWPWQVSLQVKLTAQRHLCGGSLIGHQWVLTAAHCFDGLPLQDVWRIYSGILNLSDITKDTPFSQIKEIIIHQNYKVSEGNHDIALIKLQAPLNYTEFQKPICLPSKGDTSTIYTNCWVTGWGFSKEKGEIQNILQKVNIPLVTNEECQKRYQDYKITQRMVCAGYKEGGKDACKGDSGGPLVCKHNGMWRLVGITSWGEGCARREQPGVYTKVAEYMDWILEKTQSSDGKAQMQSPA
human activated kallikrein enzyme, sequence (P03952 20-390 partner): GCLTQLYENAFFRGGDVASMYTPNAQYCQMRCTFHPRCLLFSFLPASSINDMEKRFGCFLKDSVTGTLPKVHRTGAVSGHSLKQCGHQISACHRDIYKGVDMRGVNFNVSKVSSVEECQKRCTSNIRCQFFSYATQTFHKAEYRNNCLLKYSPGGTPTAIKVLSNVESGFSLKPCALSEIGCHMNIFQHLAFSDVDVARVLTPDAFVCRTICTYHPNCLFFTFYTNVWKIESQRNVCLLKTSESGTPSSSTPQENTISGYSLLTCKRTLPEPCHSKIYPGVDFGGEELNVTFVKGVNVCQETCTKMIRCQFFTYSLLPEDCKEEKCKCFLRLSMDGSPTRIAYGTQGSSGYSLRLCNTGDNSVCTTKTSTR

Compound | EC50
O=C(Cc1ncn2ccc(Cl)cc12)NCc1cn(Cc2cn3cc(C4CC4)ccc3n2)nn1 [Compound I-1, 2-(7-chloroimidazo[1,5-a]pyridin-1-yl)-N-((1-((6-cyclopropylimidazo[1,2-a]pyridin-2-yl)methyl)-1H-1,2,3-triazol-4-yl)methyl)acetamide] | ≤ 50 nM
Fc1c(Cl)ccn2cnc(CNC(c3cnn(Cc4cn5cc(C6CC6)ccc5n4)c3)C(F)(F)F)c12 (stereo not drawn) [Compound I-16, N-((7-chloro-8-fluoroimidazo[1,5-a]pyridin-1-yl)methyl)-1-(1-((6-cyclopropylimidazo[1,2-a]pyridin-2-yl)methyl)-1H-pyrazol-4-yl)-2,2,2-trifluoroethan-1-amine] | ≤ 50 nM
CN1CCN(c2cc(C3CC3)cn3cc(Cn4cc(C(=O)NCc5ncn6ccc(Cl)c(F)c56)nn4)nc23)CC1 [Compound I-20, N-((7-chloro-8-fluoroimidazo[1,5-a]pyridin-1-yl)methyl)-1-((6-cyclopropyl-8-(4-methylpiperazin-1-yl)imidazo[1,2-a]pyridin-2-yl)methyl)-1H-1,2,3-triazole-4-carboxamide] | ≤ 50 nM
O=C(O)c1cc(C2CC2)cn2cc(Cn3cc(CNCc4ncn5ccc(Cl)c(F)c45)nn3)nc12 [Compound I-15, 2-((4-((((7-chloro-8-fluoroimidazo[1,5-a]pyridin-1-yl)methyl)amino)methyl)-1H-1,2,3-triazol-1-yl)methyl)-6-cyclopropylimidazo[1,2-a]pyridine-8-carboxylic Acid] | 200 to 1000 nM
O=S(=O)(NCc1cn(Cc2cn3cc(C4CC4)ccc3n2)nn1)c1ncn2ccc(Cl)c(F)c12 [Compound I-6, 7-chloro-N-((1-((6-cyclopropylimidazo[1,2-a]pyridin-2-yl)methyl)-1H-1,2,3-triazol-4-yl)methyl)-8-fluoroimidazo[1,5-a]pyridine-1-sulfonamide] | ≤ 50 nM
O=C(NCc1ncn2ccc(Cl)c(F)c12)c1cn2c(n1)CCC2c1cn2cc(C3CC3)ccc2n1 (stereo not drawn) [Compound I-8, N-((7-chloro-8-fluoroimidazo[1,5-a]pyridin-1-yl)methyl)-5-(6-cyclopropylimidazo[1,2-a]pyridin-2-yl)-6,7-dihydro-5H-pyrrolo[1,2-a]imidazole-2-carboxamide] | ≤ 50 nM
CCOC(=O)CCc1cc(C2CC2)cn2cc(Cn3cc(CNCc4ncn5ccc(Cl)c(F)c45)nn3)nc12 [Compound I-17a, Ethyl 3-(2-((4-((((7-chloro-8-fluoroimidazo[1,5-a]pyridin-1-yl)methyl)amino)methyl)-1H-1,2,3-triazol-1-yl)methyl)-6-cyclopropylimidazo[1,2-a]pyridin-8-yl)propanoate] | ≤ 50 nM
CC(NC(=O)Cc1ncn2ccc(Cl)cc12)c1cn(Cc2cn3cc(C4CC4)ccc3n2)nn1 (stereo not drawn) [Compound I-13, 2-(7-chloroimidazo[1,5-a]pyridin-1-yl)-N-(1-(1-((6-cyclopropylimidazo[1,2-a]pyridin-2-yl)methyl)-1H-1,2,3-triazol-4-yl)ethyl)acetamide] | ≤ 50 nM
CC(NS(=O)(=O)c1ncn2ccc(Cl)c(F)c12)c1cn(Cc2cn3cc(C4CC4)ccc3n2)nn1 (stereo not drawn) [Compound I-7, 7-chloro-N-(1-(1-((6-cyclopropylimidazo[1,2-a]pyridin-2-yl)methyl)-1H-1,2,3-triazol-4-yl)ethyl)-8-fluoroimidazo[1,5-a]pyridine-1-sulfonamide] | ≤ 50 nM
CC(NCc1ncn2ccc(Cl)c(F)c12)c1cn(Cc2cn3cc(C4CC4)ccc3n2)nn1 (stereo not drawn) [Compound I-12, N-((7-chloro-8-fluoroimidazo[1,5-a]pyridin-1-yl)methyl)-1-(1-((6-cyclopropylimidazo[1,2-a]pyridin-2-yl)methyl)-1H-1,2,3-triazol-4-yl)ethan-1-amine] | 50 to 200 nM
COC(=O)c1cc(C2CC2)cn2cc(Cn3cc(CNCc4ncn5ccc(Cl)c(F)c45)nn3)nc12 [Compound I-14, Methyl 2-((4-((((7-chloro-8-fluoroimidazo[1,5-a]pyridin-1-yl)methyl)amino)methyl)-1H-1,2,3-triazol-1-yl)methyl)-6-cyclopropylimidazo[1,2-a]pyridine-8-carboxylate] | ≤ 50 nM
O=S(=O)(NCc1ncn2ccc(Cl)c(F)c12)c1cnn(Cc2cn3cc(C4CC4)ccc3n2)c1 [Compound I-4, N-((7-chloro-8-fluoroimidazo[1,5-a]pyridin-1-yl)methyl)-1-((6-cyclopropylimidazo[1,2-a]pyridin-2-yl)methyl)-1H-pyrazole-4-sulfonamide] | 200 to 1000 nM
Fc1c(Cl)ccn2cnc(CNCc3cn(Cc4cn5cc(C6CC6)cc(-n6cnnc6)c5n4)nn3)c12 [Compound I-18, 1-(7-chloro-8-fluoroimidazo[1,5-a]pyridin-1-yl)-N-((1-((6-cyclopropyl-8-(4H-1,2,4-triazol-4-yl)imidazo[1,2-a]pyridin-2-yl)methyl)-1H-1,2,3-triazol-4-yl)methyl)methanamine] | ≤ 50 nM
O=C(NCc1cn(Cc2cn3cc(C4CC4)ccc3n2)nn1)c1ncn2ccc(Cl)c(F)c12 [Compound I-3, 7-chloro-N-((1-((6-cyclopropylimidazo[1,2-a]pyridin-2-yl)methyl)-1H-1,2,3-triazol-4-yl)methyl)-8-fluoroimidazo[1,5-a]pyridine-1-carboxamide] | 50 to 200 nM
O=C(O)CCc1cc(C2CC2)cn2cc(Cn3cc(CNCc4ncn5ccc(Cl)c(F)c45)nn3)nc12 [Compound I-17b, 3-(2-((4-((((7-chloro-8-fluoroimidazo[1,5-a]pyridin-1-yl)methyl)amino)methyl)-1H-1,2,3-triazol-1-yl)methyl)-6-cyclopropylimidazo[1,2-a]pyridin-8-yl)propanoic acid] | ≤ 50 nM
O=C(Cc1ncn2ccc(Cl)cc12)NC(c1cnn(Cc2cn3cc(C4CC4)ccc3n2)c1)C(F)(F)F (stereo not drawn) [Compound I-19, 2-(7-chloroimidazo[1,5-a]pyridin-1-yl)-N-(1-(1-((6-cyclopropylimidazo[1,2-a]pyridin-2-yl)methyl)-1H-pyrazol-4-yl)-2,2,2-trifluoroethyl)acetamide] | 50 to 200 nM
Fc1c(Cl)ccn2cnc(CNCc3cn(Cc4cn5cc(C6CC6)ccc5n4)nn3)c12 [Compound I-11, 1-(7-chloro-8-fluoroimidazo[1,5-a]pyridin-1-yl)-N-((1-((6-cyclopropylimidazo[1,2-a]pyridin-2-yl)methyl)-1H-1,2,3-triazol-4-yl)methyl)methanamine] | ≤ 50 nM
Fc1c(Cl)ccn2cnc(C(NCc3cn(Cc4cn5cc(C6CC6)ccc5n4)nn3)C(F)(F)F)c12 (stereo not drawn) [Compound I-2, 1-(7-chloro-8-fluoroimidazo[1,5-a]pyridin-1-yl)-N-((1-((6-cyclopropylimidazo[1,2-a]pyridin-2-yl)methyl)-1H-1,2,3-triazol-4-yl)methyl)-2,2,2-trifluoroethan-1-amine] | > 1000 nM
N#Cc1ccn2cnc(CNC(=O)c3cnn(Cc4cn5cc(C6CC6)ccc5n4)c3)c2c1 [Compound I-10, N-((7-cyanoimidazo[1,5-a]pyridin-1-yl)methyl)-1-((6-cyclopropylimidazo[1,2-a]pyridin-2-yl)methyl)-1H-pyrazole-4-carboxamide] | ≤ 50 nM
O=S(=O)(NCc1ncn2ccc(Cl)c(F)c12)c1cn(Cc2cn3cc(C4CC4)ccc3n2)nn1 [Compound I-5, N-((7-chloro-8-fluoroimidazo[1,5-a]pyridin-1-yl)methyl)-1-((6-cyclopropylimidazo[1,2-a]pyridin-2-yl)methyl)-1H-1,2,3-triazole-4-sulfonamide] | 200 to 1000 nM
O=C(NCc1ncn2ccc(Cl)c(F)c12)c1cnc2n1C(c1cn3cc(C4CC4)ccc3n1)CC2 (stereo not drawn) [Compound I-9, N-((7-chloro-8-fluoroimidazo[1,5-a]pyridin-1-yl)methyl)-5-(6-cyclopropylimidazo[1,2-a]pyridin-2-yl)-6,7-dihydro-5H-pyrrolo[1,2-a]imidazole-3-carboxamide] | 200 to 1000 nM

— patent US11370803B2, “Heteroaryl plasma kallikrein inhibitors” (Takeda Pharmaceutical Company Limited, priority 2019, dated 2022)
